Assay results from ChEMBL document CHEMBL5233250, “Factor XIIIa inhibitors as potential novel drugs for venous thromboembolism” (Eur J Med Chem, 2020).
Values belong to the molecule of their own block, whether it stands above or below them. Numbered stars: 1 amine (or outer) side, 2 acyl side, 3 side chain; on linkers, the order of the positions; unused ones are H or OH. Square brackets hold non-standard residues; d marks the D form. Peptide text beside a SMILES is read from it. * marks the point of attachment. ξ: configuration not given here. X2 = COC(=O)/C=C/CC[C@H](N[*:1])C(=O)[*:2]; Ile(3ξ) = CCC(C)[C@H](N)C(=O)O; X4 = CCOC(=O)c1nc(C(=O)*)cs1; X3 = O=C(c1nc2ccccc2[nH]1)*; Nle = CCCC[C@H](N)C(=O)O; X1 = Cc1nc(C(=O)*)cs1

How the values were obtained:
[1] = target: T1, Coagulation factor XIII A chain (Homo sapiens, UniProt P00488); assay: Inhibition of human coagulation factor XIIIa
T1 sequence (P00488 whole entry): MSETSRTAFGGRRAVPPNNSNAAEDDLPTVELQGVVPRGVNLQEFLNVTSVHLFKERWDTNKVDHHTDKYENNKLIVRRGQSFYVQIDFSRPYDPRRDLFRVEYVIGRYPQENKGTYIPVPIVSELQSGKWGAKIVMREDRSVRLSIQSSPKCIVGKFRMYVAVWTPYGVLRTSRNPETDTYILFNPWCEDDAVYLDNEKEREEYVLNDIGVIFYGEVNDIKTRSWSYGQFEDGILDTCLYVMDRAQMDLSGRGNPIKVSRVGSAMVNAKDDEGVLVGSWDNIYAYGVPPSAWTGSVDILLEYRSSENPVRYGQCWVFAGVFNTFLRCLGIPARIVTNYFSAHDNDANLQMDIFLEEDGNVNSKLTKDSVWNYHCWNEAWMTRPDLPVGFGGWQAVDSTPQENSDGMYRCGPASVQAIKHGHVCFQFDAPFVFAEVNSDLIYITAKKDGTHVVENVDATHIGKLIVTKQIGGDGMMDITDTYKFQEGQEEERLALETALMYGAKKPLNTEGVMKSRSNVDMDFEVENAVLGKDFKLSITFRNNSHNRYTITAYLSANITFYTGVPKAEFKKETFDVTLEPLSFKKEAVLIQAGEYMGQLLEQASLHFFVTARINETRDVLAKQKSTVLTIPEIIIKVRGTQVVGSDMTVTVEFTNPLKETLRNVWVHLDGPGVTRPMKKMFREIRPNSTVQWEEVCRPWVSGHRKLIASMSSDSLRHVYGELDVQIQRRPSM

[2] = target: T1, Coagulation factor XIII A chain; assay: Inhibition of human plasma coagulation factor XIIIa by fluorescence spectrophotometeric assay; format: cell-free
[3] = target: T1, Coagulation factor XIII A chain; assay: Inhibition of human coagulation factor XIIIa assessed as inhibition of factor 13a mediated crosslinking of fibronectin-collagen incubated for 2 hrs by SDS-PAGE analysis
[4] = target: T2, Coagulation factor XIII A chain (Homo sapiens) (UniProt P00488); assay: Binding affinity to human plasma coagulation factor XIIIa assessed as rate constant in presence of GSH by DTNB based UV-fluorescence assay; format: cell-free
T2 sequence (whole entry): T1 sequence (P00488 whole entry)

[5] = Ratio of rate constant for human plasma coagulation factor XIIIa to rate constant for Glutathione (unknown origin)
[6] = target: T1, Coagulation factor XIII A chain; assay: Inhibition of human plasma coagulation factor XIIIa; format: cell-free
[7] = target: T3, Coagulation factor XIII A chain (Bos taurus) (UniProt P12260); assay: Inhibition of bovine plasma coagulation factor XIIIa assessed as threshold concentration by measuring insoluble fibrin per total fibrin incubated for 30 mins in presence of bovine fibrin by biuret method; format: cell-free
T3 sequence (whole entry): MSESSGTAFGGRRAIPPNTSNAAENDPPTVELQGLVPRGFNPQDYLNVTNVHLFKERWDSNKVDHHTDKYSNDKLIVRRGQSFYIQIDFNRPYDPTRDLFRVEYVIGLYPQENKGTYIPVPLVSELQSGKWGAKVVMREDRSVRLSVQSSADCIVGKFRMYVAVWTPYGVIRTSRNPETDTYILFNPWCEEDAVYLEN

Canis familiaris [8] = assay: Antithrombotic activity in Mongrel dog model of electrically-induced coronary artery thrombosis assessed as time to occlusion at 0.1 mg/kg,iv pre-administered for 15 mins followed by electric impulse stimulation and t-PA and measured after 90 mins; format: functional, Canis lupus familiaris; conditions: time 105 min, 1.75 h
Canis familiaris [9] = assay: Antithrombotic activity in Mongrel dog model of electrically-induced coronary artery thrombosis assessed as re-occlusion rate at 0.1 mg/kg,iv pre-administered for 15 mins followed by electric impulse stimulation and t-PA and measured after 90 mins; format: functional, Canis lupus familiaris; conditions: time 105 min, 1.75 h
Canis familiaris [10] = assay: Antithrombotic activity in Mongrel dog model of electrically-induced coronary artery thrombosis assessed as reduction in residual thrombus mass at 0.1 mg/kg,iv pre-administered for 15 mins followed by electric impulse stimulation and t-PA and measured after 90 mins; format: functional, Canis lupus familiaris; conditions: time 105 min, 1.75 h
Canis familiaris [11] = assay: Antithrombotic activity in Mongrel dog model of electrically-induced coronary artery thrombosis assessed as time to reperfusion at 0.1 mg/kg,iv pre-administered for 15 mins followed by electric impulse stimulation and t-PA and measured after 90 mins; format: functional, Canis lupus familiaris; conditions: time 105 min, 1.75 h
[12] = Inhibition of transglutaminase in guinea pig liver assessed as inhibition constant using Z-Gln-Gly as substrate by Michaelis-Menten analysis; format: tissue-based, Cavia porcellus
[13] = target: T1, Coagulation factor XIII A chain; assay: Inhibition of human recombinant coagulation factor XIIIa
[14] = Selectivity index, ratio of IC50 for inhibition of human coagulation factor XIIIa to IC50 for inhibition of papain (unknown origin)
[15] = target: T2, Coagulation factor XIII A chain (Homo sapiens); assay: Inhibition of human coagulation factor XIIIa assessed as maximal inhibition of factor 13a mediated fibrin polymerization at 5 to 500 uM incubated for 24 hrs by SDS-PAGE analysis; conditions: dose 5-500 µM
[16] = target: T2, Coagulation factor XIII A chain (Homo sapiens); assay: Inhibition of human coagulation factor XIIIa assessed as maximal efficacy upto 20 nM
Homo sapiens [17] = organism: Homo sapiens; assay: Selectivity index, ratio of IC50 for inhibition of human coagulation factor XIIIa to IC50 for inhibition of human alpha-thrombin
Homo sapiens [18] = organism: Homo sapiens; assay: Selectivity index, ratio of IC50 for inhibition of human coagulation factor XIIIa to IC50 for inhibition of human Factor Xa
[19] = target: T2, Coagulation factor XIII A chain (Homo sapiens); assay: Inhibition of human coagulation factor XIIIa assessed as enzyme residual activity at 100 uM in presence of polybrene by Spectrofluorometric assay
[20] = Total clearance in New Zealand White rabbit at iv dosed upto 8 hrs by HPLC method; format: ADME, organism-based, Oryctolagus cuniculus; conditions: in vivo
[21] = Plasma concentration in New Zealand White rabbit at iv dosed upto 8 hrs by HPLC method; format: ADME, organism-based, Oryctolagus cuniculus
[22] = Half life in New Zealand White rabbit at iv dosed upto 8 hrs by HPLC method; format: ADME, organism-based, Oryctolagus cuniculus; conditions: in vivo
[23] = target: T4, Protein-glutamine gamma-glutamyltransferase (Homo sapiens, UniProt P21980); assay: Inhibition of tissue transglutaminase (unknown origin); format: tissue-based
T4 sequence (P21980 whole entry): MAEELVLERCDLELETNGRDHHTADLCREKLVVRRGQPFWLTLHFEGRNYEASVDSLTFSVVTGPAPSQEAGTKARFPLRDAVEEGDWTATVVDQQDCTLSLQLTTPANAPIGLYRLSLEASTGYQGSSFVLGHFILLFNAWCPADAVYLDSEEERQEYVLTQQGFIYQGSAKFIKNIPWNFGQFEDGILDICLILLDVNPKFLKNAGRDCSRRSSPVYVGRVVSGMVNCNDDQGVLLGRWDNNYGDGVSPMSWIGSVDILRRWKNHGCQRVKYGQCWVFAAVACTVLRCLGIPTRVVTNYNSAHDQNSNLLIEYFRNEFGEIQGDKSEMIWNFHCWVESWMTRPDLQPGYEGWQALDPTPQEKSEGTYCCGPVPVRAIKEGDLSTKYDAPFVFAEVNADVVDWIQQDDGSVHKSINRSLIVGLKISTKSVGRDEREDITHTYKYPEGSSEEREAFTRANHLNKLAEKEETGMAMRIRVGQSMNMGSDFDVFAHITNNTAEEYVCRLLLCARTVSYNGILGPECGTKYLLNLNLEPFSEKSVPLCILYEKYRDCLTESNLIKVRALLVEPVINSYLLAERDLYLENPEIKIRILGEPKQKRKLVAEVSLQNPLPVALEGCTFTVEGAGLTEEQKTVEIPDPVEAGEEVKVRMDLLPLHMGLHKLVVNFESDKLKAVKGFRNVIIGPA

SMILES: CC(=O)NCCc1ccc(O)cc1
- IC50 [1]: 200 nM

SMILES: O=C(O)CCCCCc1cc1=O
- IC50 [2]: 1900 nM

SMILES: NCCCNCCCCNCCCN [SPERMINE]
- IC50 [3]: 100000 nM

SMILES: CC(=O)CSc1n(C)c(C)c(C)[n+]1C
- K [4]: 6.3 10^4/M/s
- Ratio [5]: 3.9 10^4No_unit

SMILES: CC(=O)CSc1n(C)c(-c2ccccc2)c(-c2ccccc2)[n+]1C
- IC50 [6]: 350 nM

SMILES: Cc1ccc(S(=O)(=O)NCCCCOC(=O)CCl)cc1
- Activity [7]: 40 µg/mL

SMILES: CC(=O)CSc1n[n+]2c(C)csc2s1
- Time (Canis familiaris [8]): 44.4 min
- Activity (Canis familiaris [9]): 75%
- Activity (Canis familiaris [10]): 1.7 mg
- Time (Canis familiaris [11]): 16.4 min

SMILES: NCCCCCNC(=S)Nc1ccccc1
- Ki [12]: 49000 nM

SMILES: O=c1c(OS(=O)(=O)O)c(-c2ccc(OS(=O)(=O)O)c(OS(=O)(=O)O)c2)oc2cc(OS(=O)(=O)O)cc(OCCOc3cc(-c4oc5cc(OS(=O)(=O)O)cc(OCCOc6cc(OS(=O)(=O)O)cc7oc(-c8ccc(OS(=O)(=O)O)c(OS(=O)(=O)O)c8)c(OS(=O)(=O)O)c(=O)c67)c5c(=O)c4OS(=O)(=O)O)ccc3OS(=O)(=O)O)c12
- Ratio IC50 [14]: 27
- Efficacy [15]: 100%
- Efficacy [16]: 98%
- Ratio IC50 (Homo sapiens [17]): 26
- Ratio IC50 (Homo sapiens [18]): 9
- Activity [19]: 85%

SMILES: CCCC[C@H](NC(=O)[C@H](CC/C=C/C(=O)OC)NC(=O)c1csc(C)n1)C(=O)N[C@H](C(=O)N[C@@H](CC(C)C)C(=O)N1CCC[C@H]1C(=O)N[C@@H](Cc1c[nH]c2ccccc12)C(N)=O)C(C)CC (stereo partly drawn) (X1-[X2][Nle][Ile(3ξ)]LPW-NH2)
- IC50 [13]: 139 nM

SMILES: O=C(CCCCCCCc1cc1=O)NCCc1ccccc1
- IC50 [2]: 26 nM

SMILES: NC(=O)CI
- K [4]: 0.8 10^4/M/s
- Ratio [5]: 5 10^3No_unit

SMILES: O=C1C(OS(=O)(=O)O)=C(c2ccc(OS(=O)(=O)O)c(OCCCOc3cc(OS(=O)(=O)O)cc4oc(-c5ccc(OS(=O)(=O)O)c(OS(=O)(=O)O)c5)c(OS(=O)(=O)O)c(=O)c34)c2)OC2C=C(OS(=O)(=O)O)C=C(OCCCOc3cc(OS(=O)(=O)O)cc4oc(-c5ccc(OS(=O)(=O)O)c(OS(=O)(=O)O)c5)c(OS(=O)(=O)O)c(=O)c34)C12 (stereo not drawn)
- IC50 [1]: 118000 nM
- Efficacy [16]: 93%

SMILES: O=C(O)CCCCCCCc1cc1=O
- IC50 [2]: 610 nM

SMILES: Cc1c(C)[n+](C)c(SCC(=O)CSc2nnnn2C)n1C
- K [4]: 4.9 10^4/M/s
- Ratio [5]: 4.1 10^6No_unit

SMILES: NCCCCNCCCN [SPERMIDINE]
- IC50 [3]: 100000 nM

SMILES: CC(=O)CSc1n(C)cc[n+]1C
- K [4]: 0.35 10^4/M/s
- Ratio [5]: 1.9 10^6No_unit

Continued, values first:

- Activity [7]: 0.2 µg/mL
SMILES: O=C(CCl)CCCCCNS(=O)(=O)c1ccc(Cl)cc1

- Activity [7]: 0.05 µg/mL
SMILES: Cc1ccc(S(=O)(=O)NCCCCCC(=O)CCl)cc1

- IC50 [2]: 310 nM
SMILES: O=C(O)CCCCCCCCCCc1cc1=O

- Activity [7]: 0.8 µg/mL
SMILES: Cc1ccc(C(=O)NCCCCCC(=O)CCl)cc1

- IC50 [13]: 29 nM
SMILES: CCOC(=O)c1nc(C(=O)N[C@@H](CC/C=C/C(=O)OC)C(=O)N[C@@H](CC(C)C)C(=O)N[C@H](C(=O)N[C@@H](CC(C)C)C(=O)N2CCC[C@H]2C(=O)N[C@@H](Cc2c[nH]c3ccccc23)C(=O)N2CCC[C@H]2C(N)=O)C(C)CC)cs1 (stereo partly drawn) (X4-[X2]L[Ile(3ξ)]LPWP-NH2)

- clearance [20]: > 63.3 mL/min/kg
- concentration at 8 h [21]: 80 µM
- half-life [22]: 7.8 min
SMILES: O=[N+]([O-])c1ccccc1S(=O)(=O)NCCCCCCNc1nsc2nccn12

- IC50 [23]: 3100 nM
SMILES: C[C@@H]1CCC/C=C\C(=O)Cc2cc(O)cc(O)c2C(=O)O1

- Activity [7]: 0.1 µg/mL
SMILES: Cc1ccc(S(=O)(=O)N(C)CCCCCC(=O)CCl)cc1

- Activity [7]: 15 µg/mL
SMILES: Cc1ccc(S(=O)(=O)NCCCCNC(=O)CCl)cc1

- Activity [7]: 50 µg/mL
SMILES: Cc1ccc(S(=O)(=O)NCCCCCCCCCCC(=O)CCl)cc1

- IC50 [13]: 102 nM
SMILES: CCC(C)[C@H](NC(=O)[C@H](CC(C)C)NC(=O)[C@H](CC/C=C/C(=O)OC)NC(=O)c1nc2ccccc2[nH]1)C(=O)N[C@@H](CC(C)C)C(=O)N1CCC[C@H]1C(=O)N[C@@H](Cc1c[nH]c2ccccc12)C(=O)N1CCC[C@H]1C(N)=O (stereo partly drawn) (X3-[X2]L[Ile(3ξ)]LPWP-NH2)
